This is an account of results in PubChem BioAssay AID857 (Vanderbilt High Throughput Screening Facility, 2007).

The source made the active and inactive calls.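 Rule for the calls: active = a full or partial dose-response curve in at least two of three replicate runs; inactive = the rest.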

D(1B) dopamine receptor (Homo sapiens), sequence (P21918 whole entry, looked up): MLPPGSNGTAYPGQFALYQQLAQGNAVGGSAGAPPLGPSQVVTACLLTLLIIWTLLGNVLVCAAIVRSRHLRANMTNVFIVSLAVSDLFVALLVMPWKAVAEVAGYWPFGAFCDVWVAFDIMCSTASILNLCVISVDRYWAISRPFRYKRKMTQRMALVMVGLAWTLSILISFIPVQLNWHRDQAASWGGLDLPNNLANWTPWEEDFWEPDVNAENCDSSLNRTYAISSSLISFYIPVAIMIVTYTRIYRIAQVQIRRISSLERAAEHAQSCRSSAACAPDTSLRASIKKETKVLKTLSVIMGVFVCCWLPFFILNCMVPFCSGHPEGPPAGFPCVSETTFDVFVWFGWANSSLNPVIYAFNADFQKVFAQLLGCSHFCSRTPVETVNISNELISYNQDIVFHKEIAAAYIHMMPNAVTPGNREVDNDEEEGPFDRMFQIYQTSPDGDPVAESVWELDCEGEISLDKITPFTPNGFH

The test concerns the target D(1B) dopamine receptor (Homo sapiens) (UniProt P21918). Kind of test: D5 receptor allosteric modulators, concentration-response – cell-based, HEK293, CRE-luciferase, luminescence, EC30 dopamine, selectivity assay for D1 allosteric modulator project, dose response (AID 857).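 Note: HEK 293 cells expressing human D5 with a CRE-driven luciferase reporter.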
`COc1ccc(CN(C2CCCC2)S(=O)(=O)c2ccc(-n3cnnn3)cc2)cc1OC`: the result was inactive.

Turning to `C=CCn1c(=O)c2c(C)c(C)sc2n2c(Nc3ccc(OC)cc3)nnc12`, the result was inactive.

On to `CC(C)OC(=O)CSc1nnc(-c2cnccn2)n1-c1ccc(Cl)cc1`, for which the outcome was inactive.
